Data set [1] in a line: Rat in vivo MetID in pooled rat plasma. The following applies: pooled rat plasma after IV 1 mg/kg. As to the method: (§1) Therefore, in vitro and in vivo MetID were conducted to explore any possible different metabolites between the two systems. The in vitro and in vivo MetID samples were analyzed by a LC-qTOF-MS, and the data were used to elucidate a metabolite of α-amanitin using PeakView® and MetabolitePilot™. The structure of the metabolite of α-amanitin was predicted by MetabolitePilot™. The fragmentation pattern of the predicted metabolite ion from product ion scan was compared to the fragmentation pattern of the parent ion using PeakView®.
For rat in vivo MetID, rat plasma samples collected after IV administration of α-amanitin with the dose of 1 mg/kg were pooled according to the Hamilton pooling method. Then 3 μL of DMSO was added to the 300 μL of pooled rat plasma. A control sample was made by mixing 300 μL of blank rat plasma and 3 μL of 0.5 mg/mL α-amanitin. Eight hundred microliter of 50% ACN in MeOH was added to the pooled rat plasma mixture and a control sample, respectively. Then the mixture was centrifuged at 10,000 rpm for 5 min. Then 900 μL of the supernatants was collected to a fresh E-tube and evaporated for 4 h. After evaporation, samples were reconstituted with 120 μL of 50% MeOH with 5 mM ammonium formate. After centrifugation at 10,000 rpm for 5 min, 100 μL of reconstituted sample was transferred to a LC-vial.
The high-resolution TOF full scan was used for metabolite profiling. […]

Data set [2] can be described thus: In vitro MetID in CLM and HLM. Type of data set: in vitro ADME, cynomolgus monkey, human. The following applies: in vitro MetID with GSH in liver microsomes of 5 species. As to the method:
as §1
In vitro MetID was conducted in 5 species (mouse, rat, cynomolgus monkey, dog, and human) of liver microsomes. Cofactors (NADPH solution A and B, 5 mM UDPGA, and 0.5 mM GSH), compound (2 mg/mL of α-amanitin), and DW were mixed and pre-incubated for 5 min at 37 °C. After the pre-incubation, 20 μL of liver microsome (20 mg/mL) was added to 380 μL of cofactor mixture and incubated for 0 and 120 min at 37 °C. After the incubation for each time point, 150 μL of the mixture was transferred to 450 μL of 50% ACN in MeOH for stopping the reaction. Then the mixture was centrifuged at 10,000 rpm for 5 min. Then 550 μL of the supernatant was collected in a fresh E-tube and evaporated for 4 h. After evaporation, samples were reconstituted with 60 μL of 50% MeOH with 5 mM ammonium formate. […]
A general note: Microsomes from liver hold many membrane-bound enzymes, among them those of drug oxidation.

Data set [3] is described as follows: In vitro metabolic stability in human liver microsomes. Type of data set: in vitro ADME. As to the method:
In vitro stability of α-amanitin at liver microsomal system was evaluated by a LC-qTOF-MS. The remaining % represents the percentage of the sample (α-amanitin) peak area to the internal standard (verapamil) peak area.
The in vitro half-life (T1/2) and the in vitro intrinsic clearance (CLint, in vitro) were calculated by using the slope (k) of the graph shown in Figure 3. The calculation formula is shown in Equations (1) and (2). (1) T1/2=ln2/k (2) CLint,in vitromL/min/mg=k×microsomal volume mL/microsomal protein mg
The concentration of liver microsomes (microsomal volume/microsomal protein) used in the experiment was 0.5 mL/mg. The obtained CLint, in vitro was used to calculate in vivo intrinsic clearance (CLint, in vivo). The equations for calculating CLint, in vivo is shown at Equation (3):(3) CLint,in vivomL/min/kg=CLint,in vitro×mg microsomal protein/g liver weight×(g liver weight/kg body weight)
The ratio of mg microsomal protein to g liver weight was 44.8 and 48.8 in rat and human, respectively. And the ratio of g liver weight/kg body weight was 40 and 25.7 in rat and human, respectively. The hepatic clearance (CLh) was calculated from CLint, in vivo in a well-stirred model using the following Equation (4):(4) CLhmL/min=(Qh×CLint,in vivo/Qh+CLint,in vivo)
Qh (mL/min/kg), the hepatic blood flow, is known to be 55.2 and 20.7 mL/min/kg in rat and human, respectively. As a result, α-amanitin has a low hepatic clearance according to the aforementioned well-stirred model.
A metabolic stability test of α-amanitin was performed in rat and human liver microsomes. Cofactors (NADPH regenerating system solution A and B), compound (100 μg/mL of α-amanitin), 0.5 M potassium phosphate buffer with pH 7.4, and DW were mixed and pre-incubated for 5 min at 37 °C. After the pre-incubation, 12 μL of rat or human liver microsome (20 mg/mL each) was added to a 468 μL of pre-incubated cofactor mixture and the mixture was incubated for 0, 15, 30, and 60 min. After the incubation for each time point, 100 μL of the mixture was aliquoted to a 1.5 mL E-tube at each time point and 100 μL of 50% ACN in MeOH which containing 250 ng/mL of verapamil as an internal standard for protein precipitation was added for stopping the reaction. Then the mixture was centrifuged at 10,000 rpm for 5 min. Then 180 μL of the supernatants was collected in a fresh E-tube and evaporated for 3 h. After evaporation, samples were reconstituted with 150 μL of 50% MeOH with 5 mM ammonium formate. After centrifugation at 10,000 rpm for 5 min, 140 μL of reconstituted sample was transferred to a LC-vial.

Some results are limits rather than exact numbers.

Consider `CC[C@H](C)[C@@H]1NC(=O)CNC(=O)[C@@H]2Cc3c([nH]c4cc(O)ccc34)[S@+]([O-])C[C@H](NC(=O)CNC1=O)C(=O)N[C@@H](CC(N)=O)C(=O)N1C[C@H](O)C[C@H]1C(=O)N[C@@H]([C@@H](C)[C@@H](O)CO)C(=O)N2` [α-amanitin], for which the “Other metabolites in in vivo rat plasma” value in data set [1] is “no other significant metabolites”. Moreover, the “Reactive metabolites (GSH adducts)” value in data set [2] is reported as “no reactive metabolites with GSH adducts were detected”. In addition, the share remaining (in general, what is left of the initial amount, in per cent) at 0.25 h in data set [3] (human liver microsomes, 15 min incubation, NADPH regenerating system, potassium phosphate buffer pH 7.4, 37 °C, 5 min pre-incubation, LC-qTOF-MS) is 89.2 ± 5.72%. This compound also had a fraction remaining at 0.5 h in data set [3] (human liver microsomes, 30 min incubation, NADPH regenerating system, potassium phosphate buffer pH 7.4, 37 °C, 5 min pre-incubation, LC-qTOF-MS) of 85.1 ± 5.52%. This compound also gave a share remaining at 1 h in data set [3] (human liver microsomes, 60 min incubation, NADPH regenerating system, potassium phosphate buffer pH 7.4, 37 °C, 5 min pre-incubation, LC-qTOF-MS) of 82.6 ± 3.96%. In addition, in data set [3] (human liver microsomes, in vitro half-life, ln2/k from slope of ln(Remaining %) vs incubation time 0-60 min, NADPH, pH 7.4, 37 °C), the half-life (in general, the time in which the quantity being followed falls by half) was 3.93 h. In addition, the “CLint, In Vitro” value in data set [3] (human liver microsomes, k × microsomal volume/microsomal protein (0.5 mL/mg as printed)) is below 10 µL/min/mg. In data set [3] (human, predicted hepatic clearance, well-stirred model, Qh 20.7 mL/min/kg), the CLh is given as 5.43 mL/min/kg. Besides, in data set [3] (human, scaled from CLint, in vitro with 48.8 mg microsomal protein/g liver and 25.7 g liver/kg body weight), the “CLint, In Vivo” value came out at 7.36 mL/min/kg.

(Values after publication PMC9740789, “Investigation of In Vitro and In Vivo Metabolism of α-Amanitin in Rats Using Liquid Chromatography-Quadrupole Time-of-Flight Mass Spectrometric Method” (Molecules, 2022).)
